These results are taken from patent US8071778B2, “Substituted heterocyclic ethers and their use in CNS disorders” (Bristol-Myers Squibb Company, priority 2006, dated 2011).

Where two headings read alike, the source gives them in different places.

The target in test [1] is T1, NK-1 (Homo sapiens, UniProt P25103).
T1 construct: endogenous in cells; host or cells: U373 cells (crude membranes)
The experiment in a line: NK1 radioligand binding assay. Particulars: U373 membrane preparation, [125I]Substance P. The protocol:
(§1) NK-1 Binding assay. Crude membrane suspensions were prepared for the NK1 and SERT radioligand binding assays from U373 cells or recombinant HEK-293 cells expressing hSERT, respectively. […] The medium is removed from the flasks and the cells rinsed with HBSS without Ca and without Mg. The cells are then incubated for 5-10 minutes in 10 mM Tris-Cl, pH 7.5, 5 mM EDTA before the cells are lifted with a combination of pipetting and scraping, as needed. To prepare membranes, the cell suspension is collected into centrifuge bottles and homogenized for 30 seconds with a Polytron homogenizer. The suspension is centrifuged for 30 min 32,000×g, 4° C., then the supernatant is decanted and the pellet resuspended and homogenized in 50 mM Tris-Cl, pH 7.5, 1 mM EDTA for 10 seconds. The suspension is then centrifuged again for 30 min 32,000×g, 4° C. The supernatant is decanted and the pellet resuspended in 50 mM Tris-Cl, pH 7.5, 1 mM EDTA and briefly homogenized. A Bradford assay (Bio-rad) is performed and the membrane preparation diluted to 2 mg/ml with 50 mM Tris-Cl, pH 7.5, 1 mM EDTA. Aliquots are prepared, and then frozen and stored at −80° C.
(§2) NK1 radioligand binding assay. Compounds are dissolved in 100% DMSO at a concentration 100× the desired highest assay concentration, serially diluted 1:3 in 100% DMSO, and 0.6 ul/well of each solution is dispensed to a Nunc polypropylene, round bottom, 384 well plate. […] The contents of the assay plate are then transferred to a Millipore MultiscreenHTS GF/B filter plate which has been pretreated with 0.5% PEI for at least one hour. The plate is vacuum filtered and washed with 7 washes of 100 ul/well of 20 mM Tris-Cl, pH 7.5, 0.5% (w/v) BSA chilled to 4° C. The filtration and washing is completed in less than 90 s. The plates are air-dried overnight, 12 ul/well of MicroScint scintillation fluid added, and the plates counted in a Trilux.
(§3) Data analysis. […] Each plate is run in triplicate, and the concentration response curve thus generated is fit using the four-parameter dose response equation, Y=Bottom+(Top-Bottom)/(1+10^((Log IC50−X)*HillSlope)) in order to determine the IC50 value for each compound. The radioligand concentration chosen for each assay corresponds to the Kd concentration determined through saturation binding analysis for each assay.

The target in test [2] is T2, hSERT (Homo sapiens, UniProt P31645).
T2 construct: expressed in transfected cells; host or cells: HEK-293 cells (crude membranes)
The experiment in a line: SERT radioligand binding assay. Here is the method: as §1
as §2, with “SERT” for “NK1”, “0.4” for “0.6”, “50” for “20”, “120 mM NaCl, 5 mM KCl” for “0.5% (w/v) BSA”
as §3

The mark [3] stands for this setting: HEK-hSERT membrane preparation, [125I]RTI-55, read-out: SERT IC50.

T2 sequence (P31645 whole entry): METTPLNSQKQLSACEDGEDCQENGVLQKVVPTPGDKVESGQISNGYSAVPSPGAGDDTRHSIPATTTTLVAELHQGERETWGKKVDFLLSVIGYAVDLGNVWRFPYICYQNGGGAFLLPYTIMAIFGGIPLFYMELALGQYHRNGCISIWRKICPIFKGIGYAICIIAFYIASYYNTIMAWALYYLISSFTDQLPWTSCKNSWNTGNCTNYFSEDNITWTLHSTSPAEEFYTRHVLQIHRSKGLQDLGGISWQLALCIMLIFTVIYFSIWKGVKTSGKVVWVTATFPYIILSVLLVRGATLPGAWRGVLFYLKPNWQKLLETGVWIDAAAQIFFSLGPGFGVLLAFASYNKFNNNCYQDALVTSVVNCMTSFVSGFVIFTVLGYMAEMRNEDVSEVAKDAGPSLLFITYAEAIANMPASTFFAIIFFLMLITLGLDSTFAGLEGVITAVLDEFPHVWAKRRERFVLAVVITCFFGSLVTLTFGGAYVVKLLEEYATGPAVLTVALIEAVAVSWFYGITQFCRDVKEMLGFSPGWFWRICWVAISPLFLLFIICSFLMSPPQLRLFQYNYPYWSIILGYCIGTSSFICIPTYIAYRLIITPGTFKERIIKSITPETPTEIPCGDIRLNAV
T1 sequence (P25103 whole entry): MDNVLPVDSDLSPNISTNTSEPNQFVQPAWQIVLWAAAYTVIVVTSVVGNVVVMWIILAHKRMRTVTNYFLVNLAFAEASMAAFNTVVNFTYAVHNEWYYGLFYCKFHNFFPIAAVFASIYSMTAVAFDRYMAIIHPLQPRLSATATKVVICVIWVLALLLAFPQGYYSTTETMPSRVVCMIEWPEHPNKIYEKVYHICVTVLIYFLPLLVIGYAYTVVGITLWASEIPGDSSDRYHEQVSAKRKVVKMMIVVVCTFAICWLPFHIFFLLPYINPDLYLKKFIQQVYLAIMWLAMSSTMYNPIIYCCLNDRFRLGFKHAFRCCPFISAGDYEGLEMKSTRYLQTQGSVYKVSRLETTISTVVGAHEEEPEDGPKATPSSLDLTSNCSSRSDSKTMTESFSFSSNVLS

`FC(F)(F)c1ccc(-c2cc(C(F)(F)F)cc(COCC3(c4ccccc4)CCNCC3)n2)cc1` [Example 3]: the IC50 in test [1] was > 300 nM; in test [2] (setting [3]) it was 100 to 300 nM.
Turning to `CN1CCC(COCc2cc(C(F)(F)F)cc(-c3ccc(C#N)cc3)n2)(c2cccnc2)CC1` [Example 98], the IC50 in test [1] and in test [2] was 0.01 to 100 nM in each case.
For `CN1CCC(COCc2cc(C(F)(F)F)cc(-c3cccn3C(=O)OC(C)(C)C)n2)(c2ccc(F)cc2)CC1` [Example 65], the IC50 in test [1] lay within 0.01 to 100 nM; in test [2], 100 to 300 nM.
Taken in the same sequence, the figures for `Cc1ccc(-c2cc(C(F)(F)F)cc(COCC3(c4ccccc4)CCN(C)CC3)n2)cc1` [Example 40] were 0.01 to 100 nM and 0.01 to 100 nM.
As to `CN1CCC(COCc2cc(N3CCCC3)cc(C(F)(F)F)n2)(c2ccccc2)CC1` [Example 48], the IC50 in test [1] and in test [2] was 0.01 to 100 nM in each case.
Take `FC(F)(F)c1cc(COCC2(c3ccccc3)CCNCC2)nc(-c2ccncc2)c1` [Example 2]: the IC50 in test [1] and in test [2] (setting [3]) was 0.01 to 100 nM in each case.
Consider `C[C@H]1CCCN1c1cc(C(F)(F)F)cc(COCC2(c3ccc(F)cc3)CCN(C)CC2)n1` [Example 93], for which the IC50 in test [1] and in test [2] was 0.01 to 100 nM each time.
Take `CN1CCC(COCc2cc(C(F)(F)F)cc(N3CCC(N4CCCC4)CC3)n2)(c2ccccc2)CC1` [Example 88]: the IC50 is > 300 nM in test [1] and 0.01 to 100 nM in test [2] (setting [3]).
In the case of `Cc1cc(-c2cc(C(F)(F)F)cc(COCC3(c4ccc(F)cc4)CCN(C)CC3)n2)ccc1C#N` [Example 61], the IC50 in test [1] and in test [2] was 0.01 to 100 nM each time.
In the case of `CC(OCC1(c2ccc(F)cc2)CCN(C)CC1)c1cc(C(F)(F)F)cc(Br)n1` (centres unmarked) [Example 33, 2-bromo-6-(1-((4-(4-fluorophenyl)-1-methylpiperidin-4-yl)methoxy)ethyl)-4-(trifluoromethyl)p], the IC50 in test [1] and in test [2] was 0.01 to 100 nM each time.
With `COc1ccc(-c2cc(C(F)(F)F)cc(COCC3(c4ccc(F)cc4)CCN(C)CC3)n2)cc1F` [Example 75], the IC50 in test [1] and in test [2] was 0.01 to 100 nM throughout.
As for `CC(OCC1(c2ccc(F)cc2)CCN(C)CC1)c1cc(C(F)(F)F)cc(N2CCCC2)n1` (centres unmarked) [Example 86], the IC50 in test [1] and in test [2] was 0.01 to 100 nM in each case.
On to `COc1cc(COCC2(c3ccc(F)cc3)CCN(C)CC2)cc(-c2ccc(C#N)cc2)n1` [Example 76], for which the half-inhibitory concentration (IC50) in test [1] and in test [2] was 0.01 to 100 nM throughout.
Regarding `CC(OCC1(c2ccccc2)CCNCC1)c1cc(C(F)(F)F)cc(C#N)n1` (centres unmarked) [Example 32], the IC50 in test [1] and in test [2] (setting [3]) was 0.01 to 100 nM in each case.
Take `N#CC1CCN(c2cc(C(F)(F)F)cc(COCC3(c4ccc(F)cc4)CCNCC3)n2)CC1` [Example 17]: the IC50 in test [1] and in test [2] (setting [3]) was 0.01 to 100 nM in each case.
As to `Fc1ccc(C2(COCc3cc(C(F)(F)F)cc(-c4ccc(F)cc4F)n3)CCNCC2)cc1` [Example 12], the IC50 in test [1] and in test [2] (setting [3]) was 0.01 to 100 nM each time.
As for `CN1CCC(COCc2cc(C(F)(F)F)cc(-c3ccc(C#N)cc3)n2)(c2ccccc2F)CC1` [Example 54], the IC50 in test [1] was 0.01 to 100 nM; in test [2] it was 100 to 300 nM.
Taken in the same sequence, the figures for `CN1CCC(COCc2cc(C(F)(F)F)cc(-c3ccc(C#N)cc3)n2)(c2ccc(F)cc2)CC1` [Example 47] were 0.01 to 100 nM and 0.01 to 100 nM.
`CN1CCC(COCc2cc(C(F)(F)F)cc(Cl)n2)(c2cccnc2)CC1` [Example 35, 2-chloro-6-(((1-methyl-4-(pyridin-3-yl)piperidin-4-yl)methoxy)methyl)-4-(trifluoromethyl)pyridine]: the IC50 in test [1] was > 300 nM; in test [2] it was 0.01 to 100 nM.
Taken in the same sequence, the figures for `CC(OCC1(c2ccccc2)CCN(C)CC1)c1cc(C(F)(F)F)cc(-c2ccc(C#N)cc2)n1` (centres unmarked) [Example 46] were 0.01 to 100 nM and 0.01 to 100 nM.
For the compound `CN1CCC(COCc2cc(C(F)(F)F)cc(N3CCC(F)(F)C3)n2)(c2ccc(F)cc2)CC1` [Example 89], the IC50 in test [1] and in test [2] was 0.01 to 100 nM in each case.
Turning to `CN1CCC(COCc2cc(C(F)(F)F)cc(N3CCCC3)n2)(c2ccccc2F)CC1` [Example 55], the IC50 in test [1] and in test [2] (setting [3]) was 0.01 to 100 nM throughout.
Take `CN1CCC(COCc2cc(C(F)(F)F)cc(-c3ccc(C#N)cc3)n2)(c2ccc(C#N)cc2)CC1` [Example 84]: the IC50 in test [1] and in test [2] was 0.01 to 100 nM throughout.
For `CN1CCC(COCc2cc(C(F)(F)F)cc(N3CC[C@@H](F)C3)n2)(c2ccc(F)cc2)CC1` [Example 92], the IC50 in test [1] and in test [2] was 0.01 to 100 nM in each case.
`COc1ccc(-c2cc(C(F)(F)F)cc(COCC3(c4ccc(F)cc4)CCN(C)CC3)n2)cc1` [Example 74]: the IC50 in test [1] and in test [2] was 0.01 to 100 nM throughout.
For the compound `C[C@@H]1CCCN1c1cc(C(F)(F)F)cc(COCC2(c3ccc(F)cc3)CCN(C)CC2)n1` [Example 94], the IC50 in test [1] and in test [2] was 0.01 to 100 nM each time.
Regarding `CN1CCC(COCc2cc(C(F)(F)F)cc(-c3ccncc3)n2)(c2ccccc2)CC1` [Example 39], the IC50 in test [1] and in test [2] was 0.01 to 100 nM throughout.
`CN1CCC(COCc2cc(C(F)(F)F)cc(N3CCCC3)n2)(c2ccc(F)cc2)CC1` [Example 59]: the IC50 in test [1] and in test [2] (setting [3]) was 0.01 to 100 nM throughout.
On to `CC1CCCN1c1cc(C(F)(F)F)cc(COCC2(c3ccc(F)cc3)CCN(C)CC2)n1` (centres unmarked) [Example 90], for which the IC50 in test [1] and in test [2] was 0.01 to 100 nM throughout.
In the case of `CN1CCC(COCc2cc(C(F)(F)F)cc(-c3ccc(F)cc3F)n2)(c2ccc(F)cc2)CC1` [Example 62], the IC50 in test [1] and in test [2] was 0.01 to 100 nM throughout.
For `Cc1cc(-c2cc(C(F)(F)F)cc(COCC3(c4ccccc4)CCN(C)CC3)n2)ccc1C#N` [Example 60], the IC50 in test [1] and in test [2] was 0.01 to 100 nM in each case.
With `CN1CCC(COCc2cc(C(F)(F)F)cc(-c3ccc[nH]3)n2)(c2ccc(F)cc2)CC1` [Example 66], the IC50 in test [1] and in test [2] was 0.01 to 100 nM each time.
On to `Fc1ccc(C2(COCc3cc(C(F)(F)F)cc(N4CCCC4)n3)CCNCC2)cc1` [Example 20], for which the IC50 in test [1] and in test [2] (setting [3]) was 0.01 to 100 nM throughout.
Regarding `FC(F)(F)c1cc(COCC2(c3ccccc3)CCNCC2)nc(N2CCOCC2)c1` [Example 15], the results for the IC50 in test [1] and in test [2] (setting [3]) were 0.01 to 100 nM and 100 to 300 nM, respectively.
For `CC(OCC1(c2ccccc2)CCNCC1)c1cc(C(F)(F)F)cc(-c2ccc(C#N)cc2)n1` (centres unmarked) [Example 8] the same measures were 0.01 to 100 nM and 0.01 to 100 nM.
In the case of `CN1CCC(COCc2ccc(-c3ccc(Cl)cc3)nc2)(c2ccccc2)CC1` [Example 50], the IC50 was > 300 nM in test [1] and 0.01 to 100 nM in test [2].
For `CC(OCC1(c2ccc(F)cc2)CCN(C)CC1)c1cc(C(F)(F)F)cc(N2CC[C@@H](F)C2)n1` (some centres unmarked) [Example 87], the IC50 in test [1] and in test [2] (setting [3]) was 0.01 to 100 nM each time.

Broadly, the IC50 is the midpoint of a concentration-inhibition curve.
